Assay results reported in ChEMBL document CHEMBL1201862, “PubChem BioAssay data set” (2004).
Calls of active or inactive are those of the source.

Assays:
[1] = target: Beta-2 adrenergic receptor (Homo sapiens, UniProt P07550); assay: ADRB2 activation measured by internalization – cell-based, FAP fluorogen, flow cytometry, cherry pick 1, dose response (AID 588763); assay type: functional
Protein RecA = target: T1, Protein RecA (Mycobacterium tuberculosis, UniProt P9WHJ3); assay: Fluorescence Cell-Free Homogeneous Dose Retest to Identify Inhibitors of RecA-Intein Splicing Activity. [Related pubchem assays (depositor defined):AID2097, AID2223, AID489010, AID492950]; assay type: functional
T1 sequence (P9WHJ3 whole entry): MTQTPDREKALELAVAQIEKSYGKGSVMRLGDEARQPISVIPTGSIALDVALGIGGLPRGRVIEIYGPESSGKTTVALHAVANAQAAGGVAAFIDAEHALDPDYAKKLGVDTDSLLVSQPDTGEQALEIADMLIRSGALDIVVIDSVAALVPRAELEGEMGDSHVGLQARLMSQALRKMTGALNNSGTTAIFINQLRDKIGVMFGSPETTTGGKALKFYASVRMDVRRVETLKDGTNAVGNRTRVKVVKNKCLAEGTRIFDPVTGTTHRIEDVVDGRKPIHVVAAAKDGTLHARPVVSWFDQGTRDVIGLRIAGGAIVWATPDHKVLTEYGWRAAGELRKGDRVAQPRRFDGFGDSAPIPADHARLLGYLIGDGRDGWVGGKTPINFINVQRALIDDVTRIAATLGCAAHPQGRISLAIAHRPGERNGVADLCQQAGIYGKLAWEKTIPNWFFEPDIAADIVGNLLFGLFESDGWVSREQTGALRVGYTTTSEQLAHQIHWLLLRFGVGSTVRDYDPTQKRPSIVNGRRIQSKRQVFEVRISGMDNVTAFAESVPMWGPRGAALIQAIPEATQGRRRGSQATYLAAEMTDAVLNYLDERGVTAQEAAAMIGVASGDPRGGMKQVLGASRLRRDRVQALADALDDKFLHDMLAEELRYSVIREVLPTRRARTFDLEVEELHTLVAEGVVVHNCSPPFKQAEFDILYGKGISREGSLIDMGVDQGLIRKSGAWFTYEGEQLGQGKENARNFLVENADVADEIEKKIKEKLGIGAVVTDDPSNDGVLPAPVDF

[2] = target: T2, Replicative DNA helicase DnaB (Mycobacterium tuberculosis, UniProt P9WMR3); assay: DnaB intein splicing inhibitors, dose response, biochemical, cell-free fluorescence (AID 449749); assay type: functional
T2 sequence (P9WMR3 whole entry): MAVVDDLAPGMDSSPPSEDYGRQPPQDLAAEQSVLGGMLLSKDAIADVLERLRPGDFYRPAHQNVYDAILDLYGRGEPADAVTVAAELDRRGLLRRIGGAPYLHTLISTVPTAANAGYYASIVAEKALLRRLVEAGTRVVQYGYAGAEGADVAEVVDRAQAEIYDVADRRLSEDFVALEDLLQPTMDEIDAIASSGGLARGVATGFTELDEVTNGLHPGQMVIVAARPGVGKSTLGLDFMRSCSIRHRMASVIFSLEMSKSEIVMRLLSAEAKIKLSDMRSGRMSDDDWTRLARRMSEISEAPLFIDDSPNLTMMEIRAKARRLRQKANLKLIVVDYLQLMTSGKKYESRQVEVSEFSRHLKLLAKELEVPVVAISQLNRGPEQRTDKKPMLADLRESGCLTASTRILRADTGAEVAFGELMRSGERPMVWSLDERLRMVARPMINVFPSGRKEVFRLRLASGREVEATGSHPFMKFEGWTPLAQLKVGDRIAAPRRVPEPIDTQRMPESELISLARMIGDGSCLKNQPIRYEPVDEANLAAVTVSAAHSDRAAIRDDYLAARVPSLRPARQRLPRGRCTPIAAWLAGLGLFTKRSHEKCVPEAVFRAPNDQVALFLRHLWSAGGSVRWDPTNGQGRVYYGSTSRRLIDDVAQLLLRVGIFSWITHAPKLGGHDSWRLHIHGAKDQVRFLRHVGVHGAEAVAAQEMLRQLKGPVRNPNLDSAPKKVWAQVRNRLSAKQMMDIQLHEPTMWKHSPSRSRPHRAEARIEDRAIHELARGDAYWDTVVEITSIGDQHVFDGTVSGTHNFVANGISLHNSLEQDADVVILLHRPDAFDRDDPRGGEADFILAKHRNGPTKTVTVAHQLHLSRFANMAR

Streptokinase A = target: T3, Streptokinase A (Streptococcus pyogenes serotype M1, UniProt P10520); assay: viability-normalized secreted streptokinase activity reduction – plasminogen activation absorbance, OD405, dose response (AID 1914); assay type: functional, Streptococcus pyogenes M1 GAS;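 also: secreted streptokinase activity via plasminogen activation per viability signal from cell pellet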
T3 sequence (P10520 whole entry): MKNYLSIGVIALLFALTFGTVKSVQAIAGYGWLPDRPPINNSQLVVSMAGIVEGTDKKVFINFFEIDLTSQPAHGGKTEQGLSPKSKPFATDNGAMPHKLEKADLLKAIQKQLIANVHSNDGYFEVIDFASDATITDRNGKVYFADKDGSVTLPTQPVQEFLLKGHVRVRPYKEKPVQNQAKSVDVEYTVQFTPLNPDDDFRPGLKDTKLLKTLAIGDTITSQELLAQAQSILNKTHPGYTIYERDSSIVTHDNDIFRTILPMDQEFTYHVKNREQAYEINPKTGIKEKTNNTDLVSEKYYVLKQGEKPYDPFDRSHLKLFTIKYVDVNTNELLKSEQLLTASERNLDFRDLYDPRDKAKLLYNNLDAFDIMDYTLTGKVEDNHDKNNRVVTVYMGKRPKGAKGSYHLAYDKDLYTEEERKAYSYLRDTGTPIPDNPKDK

[3] = target: T4, Mitochondrial peptide methionine sulfoxide reductase (Bos taurus, UniProt P54149); assay type: functional;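 also: absorbance read-out, biochemical high-throughput dose-response screen for MsrA inhibitors, confirmatory; recombinant bovine MsrA coupled to E. coli TrxB with NADPH and selenocystamine; potency is for inhibitors of MsrA activity on DMSO substrate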
T4 sequence (P54149 whole entry): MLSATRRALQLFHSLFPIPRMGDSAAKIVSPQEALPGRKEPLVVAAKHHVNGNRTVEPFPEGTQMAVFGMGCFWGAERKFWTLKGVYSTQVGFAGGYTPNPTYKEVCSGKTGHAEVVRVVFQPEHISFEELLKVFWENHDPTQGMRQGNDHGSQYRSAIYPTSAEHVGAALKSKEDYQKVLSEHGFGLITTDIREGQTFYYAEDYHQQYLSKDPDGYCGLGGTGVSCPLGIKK

[4] = test system: Streptococcus sp. 'group A'; assay: Streptococcus pyogenes SK(-)GAS viability under kanamycin – luminescence, BacTiterGlo, confirmation, counter-screen for streptokinase expression inhibitor project, dose response (AID 1900); assay type: functional, organism-based
Streptococcus = assay: GAS UMAA2166 growth inhibition – luminescence, BacTiterGlo, counter-screen for streptokinase expression inhibitor project, dose response (AID 1915); assay type: functional, organism-based;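 also: potency for reduction of bacterial viability or growth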
Vero = assay: viability of Vero cells under compound – cytotoxicity control for flavivirus capping enzyme inhibitors (AID 588742); assay type: functional; conditions: Chlorocebus sabaeus
[5] = target: Apoptotic protease-activating factor 1 (Homo sapiens, UniProt O14727); assay type: functional
Chain of Apoptotic protease-activating factor 1 (O14727 whole entry): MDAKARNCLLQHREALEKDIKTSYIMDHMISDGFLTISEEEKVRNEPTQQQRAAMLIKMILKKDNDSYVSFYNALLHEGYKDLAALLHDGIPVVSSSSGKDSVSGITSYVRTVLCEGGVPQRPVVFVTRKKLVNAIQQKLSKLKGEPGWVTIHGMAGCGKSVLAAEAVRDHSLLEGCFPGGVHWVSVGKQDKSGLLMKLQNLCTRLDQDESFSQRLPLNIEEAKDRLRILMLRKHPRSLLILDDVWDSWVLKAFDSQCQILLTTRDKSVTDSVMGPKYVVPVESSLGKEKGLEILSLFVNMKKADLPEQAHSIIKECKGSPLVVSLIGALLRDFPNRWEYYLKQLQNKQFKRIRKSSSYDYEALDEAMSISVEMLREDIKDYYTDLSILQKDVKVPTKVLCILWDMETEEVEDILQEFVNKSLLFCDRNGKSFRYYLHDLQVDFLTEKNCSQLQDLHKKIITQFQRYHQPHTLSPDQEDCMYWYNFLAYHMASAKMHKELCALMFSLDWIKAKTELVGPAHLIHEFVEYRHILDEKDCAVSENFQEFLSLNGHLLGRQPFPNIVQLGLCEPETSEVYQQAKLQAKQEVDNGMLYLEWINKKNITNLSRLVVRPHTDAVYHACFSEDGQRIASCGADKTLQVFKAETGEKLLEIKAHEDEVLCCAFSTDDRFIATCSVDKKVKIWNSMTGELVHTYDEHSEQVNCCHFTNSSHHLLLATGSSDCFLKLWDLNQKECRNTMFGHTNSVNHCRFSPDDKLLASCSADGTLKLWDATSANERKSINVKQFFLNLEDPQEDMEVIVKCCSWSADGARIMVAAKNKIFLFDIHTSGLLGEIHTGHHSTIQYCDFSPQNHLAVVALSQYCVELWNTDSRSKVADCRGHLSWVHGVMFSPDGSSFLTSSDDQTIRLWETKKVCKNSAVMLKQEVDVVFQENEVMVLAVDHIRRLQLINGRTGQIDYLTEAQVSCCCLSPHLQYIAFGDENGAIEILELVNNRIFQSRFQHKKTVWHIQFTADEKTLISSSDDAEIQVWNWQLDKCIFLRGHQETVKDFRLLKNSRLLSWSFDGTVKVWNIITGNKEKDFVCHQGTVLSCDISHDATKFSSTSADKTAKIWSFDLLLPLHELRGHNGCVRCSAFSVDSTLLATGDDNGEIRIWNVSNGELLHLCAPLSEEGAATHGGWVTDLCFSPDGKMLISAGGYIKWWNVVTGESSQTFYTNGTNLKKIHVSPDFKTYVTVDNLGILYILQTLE

HEK293 = assay: cells; assay type: functional, cell-based; conditions: Homo sapiens
[6] = target: T5, Nuclear receptor subfamily 0 group B member 1 (Homo sapiens, UniProt P51843); assay: Luminescence-based cell-based high throughput dose response assay for inhibitors of the orphan nuclear receptor subfamily 0, group B, member 1 (DAX1; NR0B1). [Related pubchem assays (depositor defined):AID504766, AID504790]; assay type: functional
T5 sequence (P51843 whole entry): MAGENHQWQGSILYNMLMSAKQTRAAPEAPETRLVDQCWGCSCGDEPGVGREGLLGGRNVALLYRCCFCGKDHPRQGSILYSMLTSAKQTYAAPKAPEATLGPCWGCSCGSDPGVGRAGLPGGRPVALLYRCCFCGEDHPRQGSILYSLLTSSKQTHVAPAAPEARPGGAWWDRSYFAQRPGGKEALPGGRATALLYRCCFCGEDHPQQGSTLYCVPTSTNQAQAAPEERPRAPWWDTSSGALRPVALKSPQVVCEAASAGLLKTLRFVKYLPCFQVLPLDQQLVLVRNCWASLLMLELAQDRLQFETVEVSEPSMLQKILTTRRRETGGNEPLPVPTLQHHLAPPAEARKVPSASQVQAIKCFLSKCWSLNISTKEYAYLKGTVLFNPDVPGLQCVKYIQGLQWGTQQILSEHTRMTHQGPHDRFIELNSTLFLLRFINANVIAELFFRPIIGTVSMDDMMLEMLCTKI

Chain of Beta-2 adrenergic receptor (P07550 whole entry): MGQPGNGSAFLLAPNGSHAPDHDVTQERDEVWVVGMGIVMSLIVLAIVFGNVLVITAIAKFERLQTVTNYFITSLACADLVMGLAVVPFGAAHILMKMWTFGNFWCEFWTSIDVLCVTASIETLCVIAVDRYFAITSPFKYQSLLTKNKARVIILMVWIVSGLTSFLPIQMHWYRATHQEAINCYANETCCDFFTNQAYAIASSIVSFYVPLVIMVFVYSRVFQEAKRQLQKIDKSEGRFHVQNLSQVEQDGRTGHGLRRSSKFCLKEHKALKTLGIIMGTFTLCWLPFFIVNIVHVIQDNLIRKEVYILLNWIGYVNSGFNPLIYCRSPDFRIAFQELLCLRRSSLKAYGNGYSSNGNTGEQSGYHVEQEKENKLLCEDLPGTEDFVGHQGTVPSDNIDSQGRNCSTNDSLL

Cn1c(CNc2nc(-c3ccccc3)cs2)nnc1SCC(=O)N1CCc2ccccc21
EC50 [1]: 0.666 µM (active)

Cc1[nH]c2ccccc2c1C(C#N)(C#N)C1C(=O)c2ccccc2C1=O
EC50 (Protein RecA): 0.297 µM (active)
AC50 [2]: > 120 µM (inactive)
EC50 (Streptokinase A): > 150 µM (not active)
IC50 [3]: 12.1 µM (inactive)
EC50 [4]: 8.49 µM (active)
EC50 (Streptococcus): > 150 µM (not active)
CC50 (Vero): > 40 µM (active)
IC50 [5]: > 100 µM (inactive)

O=C(NC1=NCCS1)c1cccc(Br)c1
IC50 (HEK293): > 67.5 µM (inactive)
IC50 [6]: > 67.5 µM (inactive)

C(=N\Nc1nc2ccccc2[nH]1)/c1ccc2c(c1)OCO2
IC50 (HEK293): > 67.5 µM (inactive)
IC50 [6]: > 67.5 µM (inactive)
